The values that follow are results of earlier work, collected in patent publication EP4691460A1, “RAMELTEON SUBLINGUAL FILM AND PREPARATION METHOD THEREFOR” (Hangzhou Chengbang Pharmaceutical Technology Co., Ltd, priority 2023, dated 2024).

In one series the target is T1, MT2 receptors (Homo sapiens, UniProt P49286).
T1 sequence (P49286 1-362): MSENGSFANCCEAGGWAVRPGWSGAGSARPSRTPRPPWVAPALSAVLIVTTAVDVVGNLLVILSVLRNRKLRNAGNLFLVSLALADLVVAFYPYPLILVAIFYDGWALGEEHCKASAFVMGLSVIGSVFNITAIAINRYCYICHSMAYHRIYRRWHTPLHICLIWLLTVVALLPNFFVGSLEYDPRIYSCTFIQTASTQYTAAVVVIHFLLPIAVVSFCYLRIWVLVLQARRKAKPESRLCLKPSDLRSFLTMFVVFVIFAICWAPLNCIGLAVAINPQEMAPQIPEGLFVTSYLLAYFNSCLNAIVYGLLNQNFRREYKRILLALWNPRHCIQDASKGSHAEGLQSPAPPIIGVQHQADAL
The note with it: fraction of the affinity of ramelteon.

For the next series, the target named is MT1 receptors (Homo sapiens, UniProt P48039). The note with it: fraction of the affinity of ramelteon.
Sequence of MT1 receptors (P48039 whole entry): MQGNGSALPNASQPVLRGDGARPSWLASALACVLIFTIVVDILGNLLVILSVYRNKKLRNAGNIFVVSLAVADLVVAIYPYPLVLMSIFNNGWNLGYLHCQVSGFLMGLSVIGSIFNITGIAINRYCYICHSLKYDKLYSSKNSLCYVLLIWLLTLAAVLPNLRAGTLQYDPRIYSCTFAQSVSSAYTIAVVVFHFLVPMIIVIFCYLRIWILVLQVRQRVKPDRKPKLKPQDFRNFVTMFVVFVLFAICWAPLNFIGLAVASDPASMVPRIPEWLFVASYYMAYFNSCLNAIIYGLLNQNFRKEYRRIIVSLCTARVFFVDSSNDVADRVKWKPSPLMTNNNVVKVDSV
[1] abbreviates: oral administration, clinical data.
[2] abbreviates: taken with a high-fat meal versus fasting.

Regarding `CC(O)C(=O)NCC[C@@H]1CCc2ccc3c(c21)CCO3` (stereo partly drawn) [M-II], at MT2 receptors, the “affinity with MT2 receptors relative to the metabolic substrate” value is listed as “one tenth”. For the same molecule, the “total amount relative to the metabolic substrate” value (main metabolite versus ramelteon) is 20-100 times. Further, on MT1 receptors, the “affinity with MT1 receptors relative to the metabolic substrate” value is listed as “about one fifth”.
For `CCC(=O)NCC[C@@H]1CCc2ccc3c(c21)CCO3` [ramelteon, Ramelteon], under setting [1], the “drug absorbed after oral administration” value is “At least 84%” and the “median time to peak drug concentration” value was “approximately 0.75 (0.5-1.5) h”. Further, the absolute bioavailability (oral administration, first pass effect) is 1.4%. Moreover, the “AUC higher than that of fasting administration” value (taken with a high-fat meal) is recorded as 31%. Further, under setting [2], the Cmax reduction is listed as 22% and the “median Tmax delay” value is 45 min.
